Experimental data: patent US20260184693A1, “INHIBITORS OF SOLUTE CARRIER FAMILY 6A MEMBER 19 (SLC6A19) AND METHODS OF USE THEREOF” (Maze Therapeutics, Inc., priority 2022, published 2026)

Each compound was assayed against T1, human SLC6A19 (Homo sapiens, UniProt Q695T7) (assay: Example B2: 13C6,15N-isoleucine uptake, RapidFire mass spectrometry, in CHO cells with doxycycline-inducible expression of human SLC6A19 and TMEM27). Conditions: read-out: SLC6A19_RapidFire Uptake Assay IC50.
T1 construct: expressed in transfected cells
T1 sequence (Q695T7 1-634): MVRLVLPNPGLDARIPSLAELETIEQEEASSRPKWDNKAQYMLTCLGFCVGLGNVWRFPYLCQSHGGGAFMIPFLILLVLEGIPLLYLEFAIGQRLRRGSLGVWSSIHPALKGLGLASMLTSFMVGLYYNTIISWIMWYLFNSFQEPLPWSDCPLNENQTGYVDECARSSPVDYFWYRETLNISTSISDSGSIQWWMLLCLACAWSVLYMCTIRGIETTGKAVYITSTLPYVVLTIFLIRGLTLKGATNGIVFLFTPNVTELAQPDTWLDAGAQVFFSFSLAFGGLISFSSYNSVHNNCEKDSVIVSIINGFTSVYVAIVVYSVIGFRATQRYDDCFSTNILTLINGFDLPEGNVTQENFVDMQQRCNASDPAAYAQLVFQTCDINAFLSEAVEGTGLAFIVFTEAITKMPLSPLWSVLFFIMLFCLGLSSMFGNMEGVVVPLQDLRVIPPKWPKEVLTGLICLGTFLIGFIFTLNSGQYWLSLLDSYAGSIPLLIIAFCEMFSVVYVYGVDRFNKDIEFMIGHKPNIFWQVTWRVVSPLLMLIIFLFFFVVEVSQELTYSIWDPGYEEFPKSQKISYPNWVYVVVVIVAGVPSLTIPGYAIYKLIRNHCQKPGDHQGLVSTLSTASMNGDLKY
T1 sequence (Q9HBJ8 15-222 partner): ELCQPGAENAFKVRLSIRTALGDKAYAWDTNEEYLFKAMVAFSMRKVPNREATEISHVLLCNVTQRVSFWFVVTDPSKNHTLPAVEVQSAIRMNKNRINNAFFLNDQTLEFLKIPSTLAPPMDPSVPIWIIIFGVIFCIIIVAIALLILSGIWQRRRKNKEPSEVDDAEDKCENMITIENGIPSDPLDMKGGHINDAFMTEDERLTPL
Format: cell-based
In short: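 CHO cells were induced with doxycycline to express human SLC6A19 with TMEM27, then pre-incubated 20 min at 37 °C with compounds (2-fold, 10-point, duplicate). Uptake of 13C6,15N-isoleucine (2 mM solution added) over a further 20 min was measured by RapidFire mass spectrometry, using 13C-leucine as internal standard.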

Row | SMILES | IC50 [nM]
1 | CN(C(=O)NCc1cc2cc(Cl)ccc2[nH]1)[C@@H]1CCCN(C(=O)C2CNC2)C1 [Compound 130, (R)-1-(1-(azetidine-3-carbonyl)piperidin-3-yl)-3-((5-chloro-1H-indol-2-yl)methyl)-1-methylurea] | 12100
2 | CN(C(=O)NCc1cc2cc(Cl)ccc2[nH]1)[C@@H]1CCCN(C(=O)[C@@H]2CC(=O)CN2)C1 [Compound 131, 3-((5-chloro-1H-indol-2-yl)methyl)-1-methyl-1-((R)-1-((S)-4-oxopyrrolidine-2-carbonyl)piperidin-3-yl)urea] | > 45400
3 | COCC(N)C(=O)N1CCC[C@@H](N(C)C(=O)NCc2cc3cc(Cl)ccc3[nH]2)C1 (stereo partly drawn) [Compound 132, 3-((5-chloro-1H-indol-2-yl)methyl)-1-methyl-1-((3R)-1-(O-methylseryl)piperidin-3-yl)urea] | > 31000
4 | CN(C(=O)NCc1cc2cc(Cl)ccc2[nH]1)[C@@H]1CCCN(C(=O)C2COCCN2)C1 (stereo partly drawn) [Compound 133, 3-((5-chloro-1H-indol-2-yl)methyl)-1-methyl-1-((3R)-1-(morpholine-3-carbonyl)piperidin-3-yl)urea] | > 7640
5 | CC(=O)N1CCC[C@@H](N(C)C(=O)NCc2cc3cc(Cl)c(OCc4ccon4)cc3[nH]2)C1 [Compound 138, (R)-1-(1-acetylpiperidin-3-yl)-3-((5-chloro-6-(isoxazol-3-ylmethoxy)-1H-indol-2-yl)methyl)-1-methylurea] | 643
6 | CC(=O)N1CCC[C@@H](N(C)C(=O)NCc2cc3cc(Cl)c(OCc4cncs4)cc3[nH]2)C1 [Compound 140, (R)-1-(1-acetylpiperidin-3-yl)-3-((5-chloro-6-(thiazol-5-ylmethoxy)-1H-indol-2-yl)methyl)-1-methylurea] | 1240
7 | CC(=O)N1CCC[C@@H](N(C)C(=O)NCc2cc3ccc(OCc4ccon4)cc3[nH]2)C1 [Compound 141, (R)-1-(1-acetylpiperidin-3-yl)-3-((6-(isoxazol-3-ylmethoxy)-1H-indol-2-yl)methyl)-1-methylurea] | 670
8 | Cc1cc(COc2ccc3cc(CNC(=O)N(C)[C@@H]4CCCN(c5cccnn5)C4)[nH]c3c2)no1 [Compound 142, (R)-1-methyl-3-((6-((5-methylisoxazol-3-yl)methoxy)-1H-indol-2-yl)methyl)-1-(1-(pyridazin-3-yl)piperidin-3-yl)urea] | 1310
9 | CC(=O)N1CCC[C@@H](N(C)C(=O)NCc2cc3ccc(OCc4cc(C)on4)cc3[nH]2)C1 [Compound 143, (R)-1-(1-acetylpiperidin-3-yl)-1-methyl-3-((6-((5-methylisoxazol-3-yl)methoxy)-1H-indol-2-yl)methyl)urea] | 1090
10 | Cc1cc(COc2cc3[nH]c(CNC(=O)N(C)[C@@H]4CCCN(c5cccnn5)C4)cc3cc2Cl)no1 [Compound 144, (R)-3-((5-chloro-6-((5-methylisoxazol-3-yl)methoxy)-1H-indol-2-yl)methyl)-1-methyl-1-(1-(pyridazin-3-yl)piperidin-3-yl)urea] | 284
11 | CN(C(=O)NCc1cc2ccccc2[nH]1)[C@@H]1CCCN(c2cccnn2)C1 [Compound 146, (R)-3-((1H-indol-2-yl)methyl)-1-methyl-1-(1-(pyridazin-3-yl)piperidin-3-yl)urea] | 553
12 | CC(=O)N1CCC[C@@H](N(C)C(=O)NCc2cc3ccccc3[nH]2)C1 [Compound 148, (R)-3-((1H-indol-2-yl)methyl)-1-(1-acetylpiperidin-3-yl)-1-methylurea] | 1080
13 | CN(C(=O)NCc1cc2ccccc2[nH]1)[C@@H]1CCCN(c2ccon2)C1 [Compound 150, (R)-3-((1H-indol-2-yl)methyl)-1-(1-(isoxazol-3-yl)piperidin-3-yl)-1-methylurea] | 91.9
14 | CN(C(=O)NCc1cc2cc(Cl)ccc2[nH]1)[C@@H]1CCCN(c2ccon2)C1 [Compound 151, (R)-3-((5-chloro-1H-indol-2-yl)methyl)-1-(1-(isoxazol-3-yl)piperidin-3-yl)-1-methylurea] | 40.4
15 | COc1cc2[nH]c(CNC(=O)N(C)[C@@H]3CCCN(C(C)=O)C3)cc2cc1Cl [Compound 153, (R)-1-(1-acetylpiperidin-3-yl)-3-((5-chloro-6-methoxy-1H-indol-2-yl)methyl)-1-methylurea] | 504
16 | CC(=O)N1CCC[C@@H](N(C)C(=O)NCc2cc3cc(F)c(F)cc3[nH]2)C1 [Compound 156, (R)-1-(1-acetylpiperidin-3-yl)-3-((5,6-difluoro-1H-indol-2-yl)methyl)-1-methylurea] | 282
17 | CC(=O)N1CCC[C@@H](N(C)C(=O)NCc2cc3cc(Cl)c(F)cc3[nH]2)C1 [Compound 159, (R)-1-(1-acetylpiperidin-3-yl)-3-((5-chloro-6-fluoro-1H-indol-2-yl)methyl)-1-methylurea] | 179

The remaining compounds from weak to strong by IC50, led by results:

Row | IC50 [nM] | SMILES
18 | 10100 | CN1CCC[C@@H](N(C)C(=O)NCc2cc3cc(Cl)ccc3[nH]2)C1 [Compound 149, (R)-3-((5-chloro-1H-indol-2-yl)methyl)-1-methyl-1-(1-methylpiperidin-3-yl)urea]
19 | 3950 | CC(=O)N1CCC[C@@H](N(C)C(=O)NCc2cc3ccc(OCc4cncs4)cc3[nH]2)C1 [Compound 136, (R)-1-(1-acetylpiperidin-3-yl)-1-methyl-3-((6-(thiazol-5-ylmethoxy)-1H-indol-2-yl)methyl)urea]
20 | 909 | CN(C(=O)NCc1cc2ccccc2[nH]1)C1CCCN(c2cccnn2)C1 (stereo not drawn) [Compound 145, 3-((1H-indol-2-yl)methyl)-1-methyl-1-(1-(pyridazin-3-yl)piperidin-3-yl)urea]
21 | 708 | CC(=O)N1CCC[C@@H](N(C)C(=O)NCc2cc3ccc(F)cc3[nH]2)C1 [Compound 160, (R)-1-(1-acetylpiperidin-3-yl)-3-((6-fluoro-1H-indol-2-yl)methyl)-1-methylurea]
22 | 537 | CCOc1cc2[nH]c(CNC(=O)N(C)[C@@H]3CCCN(C(C)=O)C3)cc2cc1Cl [Compound 155, (R)-1-(1-acetylpiperidin-3-yl)-3-((5-chloro-6-ethoxy-1H-indol-2-yl)methyl)-1-methylurea]
23 | 517 | CCN(C(=O)NCc1cc2ccc(OCc3ccon3)cc2[nH]1)[C@@H]1CCCN(C(C)=O)C1 [Compound 139, (R)-1-(1-acetylpiperidin-3-yl)-1-ethyl-3-((6-(isoxazol-3-ylmethoxy)-1H-indol-2-yl)methyl)urea]
24 | 194 | CC(=O)N1CCC[C@@H](N(C)C(=O)NCc2cc3cc(C)c(Cl)cc3[nH]2)C1 [Compound 157, (R)-1-(1-acetylpiperidin-3-yl)-3-((6-chloro-5-methyl-1H-indol-2-yl)methyl)-1-methylurea]
25 | 173 | CC(=O)N1CCC[C@@H](N(C)C(=O)NCc2cc3cc(Cl)c(Cl)cc3[nH]2)C1 [Compound 154, (R)-1-(1-acetylpiperidin-3-yl)-3-((5,6-dichloro-1H-indol-2-yl)methyl)-1-methylurea]
26 | 171 | CCc1cc2[nH]c(CNC(=O)N(C)[C@@H]3CCCN(C(C)=O)C3)cc2cc1Cl [Compound 152, (R)-1-(1-acetylpiperidin-3-yl)-3-((5-chloro-6-ethyl-1H-indol-2-yl)methyl)-1-methylurea]
27 | 113 | COC(=O)N1CCC[C@@H](N(C)C(=O)NCc2cc3cc(Cl)ccc3[nH]2)C1 [Compound 158, methyl (R)-3-(3-((5-chloro-1H-indol-2-yl)methyl)-1-methylureido)piperidine-1-carboxylate]
